{"source": "patent US20030194376A1", "about": "“Ultrasound contrast agents and methods of making and using them” (Bracco International B.V., priority 1990, published 2003)", "data": [{"experiment": "Water solubility of the filling gas (Bunsen coefficient, Gas Encyclopaedia)", "type": "physicochemical", "details": "gas solubility divided by square root of molecular weight", "from_the_text": "In the Tables, the water solubility factors have also been taken from the aforecited Gas Encyclopaedia from “L'Air Liquide”, Elsevier Publisher (1976).", "values": [{"molecule": "FC(F)(F)Br", "note": "[CBrF3]", "S gas {square root} Mw": ".0004"}, {"molecule": "FC(F)(F)F", "note": "[CF4]", "S gas {square root} Mw": ".0004"}, {"molecule": "[Kr]", "note": "[Kr, Krypton]", "S gas {square root} Mw": ".006"}]}]}
